Measurements from publication PMC7160673, “A Degenerate Peptide Library Approach to Reveal Sequence Determinants of Methyllysine-Driven Protein Interactions” (Frontiers in Cell and Developmental Biology, 2020).

Columns and labels:
Assay type in all cases: binding
CST 9733 (anti-H3K27me3) = experiment: Histone peptide microarray, CST 9733; conditions: histone peptide array signal normalized to the highest peptide average per subarray, hits; CST 9733 LOT:14 dilution 1:5,000
Protocol: (§1) Peptide microarrays were fabricated using an Aushon 2470 microarrayer and used as described ([Cornett et al., 2017]) with the following modifications. Protein and antibody hybridization steps were performed in buffer containing 25 mM HEPES pH 7.5, 100 mM NaCl, 0.5% BSA (w/v), and 0.1% NP-40. Slides were washed 3 × 5 min in PBS supplemented with 0.1% Tween-20 between each hybridization step. Antibodies used were primary anti-GST (Sigma #7781, 1:2,000 dilution) and an AlexaFluor 647-labeled secondary antibody (Life Technologies A-21245, 1:5,000 dilution). […] Full lists of peptides queried by array analysis are in Supplementary Table S2.

[1] = system: Millipore #07-449, anti-H3K27me3; experiment: Histone peptide microarray, Millipore 07-449; conditions: Millipore 07-449 (anti-H3K27me3) hits, average signal per peptide
Protocol: as §1

53BP1 TTD = experiment: Histone peptide microarray, 53BP1 TTD; conditions: 53BP1 TTD hits, average signal per peptide
Protocol: as §1

[2] = system: Active Motif #39161, anti-H3K9me3; experiment: Histone peptide microarray, Active Motif 39161; conditions: Active Motif 39161 (anti-H3K9me3) hits
Protocol: as §1

[3] = system: Abcam #ab8895, anti-H3K4me1; experiment: Histone peptide microarray, Abcam ab8895; conditions: Abcam ab8895 (anti-H3K4me1) hits, average signal per peptide
Protocol: as §1

Row | Substance | Avg Signal (CST 9733 (anti-H3K27me3)) | Avg Signal [1] | Avg Signal (53BP1 TTD) | Avg Signal [2] | Avg Signal [3]
1 | ACitTK(Me3)QTARKSTGGKAPRKQL-K(Biot)-NH2 [H3.1Cit2K4me3] | 0.00216 | 0.01263 | 0.1746 | 0.009245 | 
2 | AR(Me2a)TK(Me3)QTARK(Ac)pSTGGK(Ac)APRK(Ac)QL-K(Biot)-NH2 [H3.1R2me2aK4me3K9acS10pK14acK18ac] | 0.001633 | 0.0008355 | 0.02248 | 0.01104 | 
3 | AR(Me2a)TK(Me3)QTARKSTGGKAPRKQL-K(Biot)-NH2 [H3.1R2me2aK4me3] | 0.001321 | 0.02156 | 0.09687 | 0.01254 | 
4 | AR(Me2s)TK(Me3)QTARK(Ac)STGGK(Ac)APRK(Ac)QL-K(Biot)-NH2 [H3.1R2me2sK4me3K9acK14acK18ac] | 0.0007823 | 0.02279 | 0.134 | 0.02558 | 
5 | AR(Me2s)TK(Me3)QTARKSTGGKAPRKQL-K(Biot)-NH2 [H3.1R2me2sK4me3] | 0.00218 | 0.0135 | 0.1898 | 0.01035 | 
6 | ARTK(Ac)QTARK(Ac)STGGK(Ac)APRK(Ac)QL-K(Biot)-NH2 [H3.1K4acK9acK14acK18ac] | 0.0003418 |  | 0.1399 | 0.05366 | 
7 | ARTK(Me3)QTARK(Ac)STGGK(Ac)APRK(Ac)QL-K(Biot)-NH2 [H3.1K4me3K9acK14acK18ac] | 0.009625 | 0.03443 | 0.09733 | 0.004819 | 
8 | ARTK(Me3)QTARK(Ac)STGGK(Ac)APRKQL-K(Biot)-NH2 [H3.1K4me3K9acK14ac] | 0.005042 | 0.05366 | 0.06229 | 0.01712 | 
9 | ARTK(Me3)QTARK(Ac)STGGKAPRK(Ac)QL-K(Biot)-NH2 [H3.1K4me3K9acK18ac] | 0.009868 | 0.05409 | 0.0915 | 0.01916 | 
10 | ARTK(Me3)QTARK(Ac)STGGKAPRKQL-K(Biot)-NH2 [H3.1K4me3K9ac] | 0.008895 | 0.05697 | 0.2378 | 0.02897 | 
11 | ARTK(Me3)QTARK(Ac)pSTGGKAPRKQL-K(Biot)-NH2 [H3.1K4me3K9acS10p] | 0.004944 | 0.007736 | 0.1299 | 0.01343 | 
12 | Ac-GKGGAKRHRKVLRDNIQ-Peg-Biot [H4(11-27)] | 0.0004161 |  | 0.128 | 0.04504 | 
13 | Ac-SGCitGK(Ac)QGGKARAKAKTR-Peg-Biot [Peptide H2ACit3K5ac] | 1.355e-5 |  | 0.009599 |  | 
14 | Ac-SGRGKGGK(Ac)GLGK(Ac)GGAKRHRKVLR-Peg-Biot [Peptide H4K8acK12ac] | 0.0001351 | 0.006396 |  | 0.0006444 | 0.002906
15 | Ac-SGRGKGGKGLGK(Ac)GGAKRHRK(Ac)VLR-Peg-Biot [Peptide H4K12acK20ac] | 0.0004147 | 0.007438 |  | 0.009155 | 0.005228
16 | KSAPSTGGVK(Me3)KPHRYKPGT-G-K(Biot)-NH2 [yH3K36me3] | 0.0003217 |  | 0.1137 |  | 
17 | KSAPSTGGVK(Me)KPHRYRPGT-G-K(Biot)-NH2 [Peptide H3.3K36me1] | 0.0007823 | 0.009576 |  | 0.0005946 | 0.003496
18 | PEPAK(Me2)SAPAPKKGSKKAVTKAQKK-Peg-Biot [Peptide H2BK5me2] | 0.0008674 |  | 0.1922 |  | 
19 | SGRGK(Ac)QGGK(Ac)ARAK(Ac)AK(Ac)TR-Peg-Biot [H2AK5acK9acK13acK15ac(noN-ac)] | 6.218e-5 |  | 0.2522 |  | 
